Source: ChEMBL document CHEMBL3879907, “8-azabicyclo[3.2.1]octane compounds as mu opioid receptor antagonists” (2014)

Key:
Mus musculus [1] = assay: Reversal of morphine-induced delayed gastrointestinal transit in sc dosed mouse compound administered prior to morphine challenge followed by non-nutritive, non-absorbable charcol meal administration by oral gavage at 5 mins post morphine challenge for 60 mins; type: functional; details: read-out: ID50 (the source's name)
Mus musculus [2] = assay: Reversal of morphine-induced delayed gastrointestinal transit in po dosed mouse compound administered prior to morphine challenge followed by non-nutritive, non-absorbable charcol meal administration by oral gavage at 5 mins post morphine challenge for 60 mins; type: functional; details: read-out: ID50 (the source's name)
[3] = biological target: Delta-type opioid receptor (Homo sapiens, UniProt P41143); assay: Displacement of [3H]-diprenorphine from human delta opioid receptor expressed in cell membranes
Sequence of Delta-type opioid receptor (P41143 whole entry): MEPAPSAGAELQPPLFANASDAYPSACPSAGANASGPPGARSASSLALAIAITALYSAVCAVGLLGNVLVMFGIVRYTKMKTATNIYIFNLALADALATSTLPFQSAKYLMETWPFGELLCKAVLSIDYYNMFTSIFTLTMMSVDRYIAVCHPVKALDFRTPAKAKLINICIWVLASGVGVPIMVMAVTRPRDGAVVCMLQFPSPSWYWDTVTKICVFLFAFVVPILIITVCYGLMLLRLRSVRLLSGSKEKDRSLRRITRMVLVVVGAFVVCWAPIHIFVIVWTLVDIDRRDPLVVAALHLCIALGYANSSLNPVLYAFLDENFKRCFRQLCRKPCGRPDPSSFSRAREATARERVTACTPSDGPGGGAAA

[4] = biological target: Kappa-type opioid receptor (Cavia porcellus, UniProt P41144); assay: Displacement of [3H]-diprenorphine from guinea pig kappa opioid receptor expressed in CHOK1 cell membranes; details: cho-k1
Sequence of Kappa-type opioid receptor (P41144 whole entry): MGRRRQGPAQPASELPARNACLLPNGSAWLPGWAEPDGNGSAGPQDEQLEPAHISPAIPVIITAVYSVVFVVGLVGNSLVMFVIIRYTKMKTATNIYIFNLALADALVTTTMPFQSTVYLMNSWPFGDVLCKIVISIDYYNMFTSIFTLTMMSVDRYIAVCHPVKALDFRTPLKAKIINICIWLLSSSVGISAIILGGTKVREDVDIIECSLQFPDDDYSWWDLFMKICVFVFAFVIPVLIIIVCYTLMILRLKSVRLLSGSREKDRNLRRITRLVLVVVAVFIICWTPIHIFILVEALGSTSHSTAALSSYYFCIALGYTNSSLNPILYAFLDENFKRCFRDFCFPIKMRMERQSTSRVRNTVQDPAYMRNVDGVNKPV

[5] = biological target: Mu-type opioid receptor (Homo sapiens) (UniProt P35372); assay: Intrinsic activity at human mu opioid receptor expressed in CHOK1 cell membranes at 0.00001 to 20 uM after 30 mins by GTP-Eu nucleotide exchange assay relative to DAMGO; type: functional; details: CHO-K1
Sequence of Mu-type opioid receptor (Homo sapiens) (P35372 whole entry): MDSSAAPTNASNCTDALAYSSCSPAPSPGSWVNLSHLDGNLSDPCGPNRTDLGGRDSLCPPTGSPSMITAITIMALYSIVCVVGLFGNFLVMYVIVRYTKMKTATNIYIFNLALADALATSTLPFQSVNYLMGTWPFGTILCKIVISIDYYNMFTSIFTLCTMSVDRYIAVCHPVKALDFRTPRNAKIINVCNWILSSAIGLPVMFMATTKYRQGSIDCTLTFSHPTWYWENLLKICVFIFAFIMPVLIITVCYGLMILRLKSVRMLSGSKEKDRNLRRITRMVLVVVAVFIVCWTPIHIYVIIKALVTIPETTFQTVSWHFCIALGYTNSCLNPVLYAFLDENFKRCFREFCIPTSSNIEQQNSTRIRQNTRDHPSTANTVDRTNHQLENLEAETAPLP

Structure (SMILES)	ED50 (Mus musculus [1])	ED50 (Mus musculus [2])	pKi [3]	pKi [4]	Intrinsic activity [5]
NC(=O)c1cccc([C@H]2C[C@H]3CC[C@@H](C2)N3CCN(CC2CCCCC2)C(=O)[C@@H](O)CO)c1.O=S(=O)(O)O [AXELOPRAN SULFATE]	0.1 to 3 mg/kg	0.1 to 3 mg/kg			
NC(=O)c1cccc([C@H]2C[C@H]3CC[C@@H](C2)N3CCN(CCc2ccccc2)C(=O)CO)c1	0.1 to 3 mg/kg	0.1 to 3 mg/kg	7 to 10.5		
NC(=O)c1cccc([C@H]2C[C@H]3CC[C@@H](C2)N3CCN(CC2CCC(F)(F)CC2)C(=O)CO)c1	0.1 to 3 mg/kg	0.1 to 3 mg/kg	7 to 10.5	7 to 10.5	< 40%
NC(=O)c1cccc([C@H]2C[C@H]3CC[C@@H](C2)N3CCN(CC2CCCCC2)C(=O)[C@@H](O)CO)c1 [AXELOPRAN]	0.1 to 3 mg/kg	0.1 to 3 mg/kg			
NC(=O)c1cccc([C@H]2C[C@H]3CC[C@@H](C2)N3CCN(CC2CCCCC2)C(=O)CO)c1	0.1 to 3 mg/kg	0.1 to 3 mg/kg			< 40%
NC(=O)c1cccc([C@H]2C[C@H]3CC[C@@H](C2)N3CCN(CC2CCCCC2)C(=O)[C@@H](O)CO)c1.O=C(O)C(=O)O	0.1 to 3 mg/kg	0.1 to 3 mg/kg	7 to 10.5	7 to 10.5	
CS(=O)(=O)CC(=O)N(CCN1[C@@H]2CC[C@H]1C[C@@H](c1cccc(C(N)=O)c1)C2)CC1CCCCC1			7 to 10.5	7 to 10.5	< 40%
COC(=O)CCC(=O)N(CCN1[C@@H]2CC[C@H]1C[C@@H](c1cccc(C(N)=O)c1)C2)CC1CCCCC1			7 to 10.5	7 to 10.5	< 40%
NC(=O)c1cccc([C@H]2C[C@H]3CC[C@@H](C2)N3CCN(CCCc2ccccc2)C(=O)CO)c1			7 to 10.5	7 to 10.5	< 40%
NC(=O)c1cccc([C@H]2C[C@H]3CC[C@@H](C2)N3CCN(CC2CCCCC2)C(=O)[C@@H](O)CCO)c1.O=C(O)C(F)(F)F			7 to 10.5	7 to 10.5	< 40%
NC(=O)CCC(=O)N(CCN1[C@@H]2CC[C@H]1C[C@@H](c1cccc(O)c1)C2)CC1CCCCC1			7 to 10.5	7 to 10.5	< 40%
NC(=O)c1cccc([C@H]2C[C@H]3CC[C@@H](C2)N3CCN(Cc2ccccc2)C(=O)CO)c1	0.1 to 3 mg/kg	0.1 to 3 mg/kg	7 to 10.5	7 to 10.5	
C[C@H](CN1[C@@H]2CC[C@H]1C[C@@H](c1cccc(O)c1)C2)N(Cc1ccccc1)C(=O)CCC1CCCC1			7 to 10.5	7 to 10.5	< 40%
NC(=O)c1cccc([C@H]2C[C@H]3CC[C@@H](C2)N3CCN(CC2CCCCC2)C(=O)CCCO)c1			7 to 10.5	7 to 10.5	< 40%
O=C(O)CC(=O)N(CCN1[C@@H]2CC[C@H]1C[C@@H](c1cccc(O)c1)C2)CC1CCCCC1			7 to 10.5	7 to 10.5	< 40%
COC(=O)CCC(=O)N(CCN1[C@@H]2CC[C@H]1C[C@@H](c1cccc(O)c1)C2)CC1CCCCC1			7 to 10.5	7 to 10.5	< 40%
NC(=O)c1cccc([C@H]2C[C@H]3CC[C@@H](C2)N3CCN(Cc2ccccc2)C(=O)C2(O)CC2)c1.O=C(O)C(F)(F)F			7 to 10.5	7 to 10.5	< 40%
COCC(=O)N(CCN1[C@@H]2CC[C@H]1C[C@@H](c1cccc(C(N)=O)c1)C2)Cc1c(F)cccc1F.O=C(O)C(F)(F)F			7 to 10.5	7 to 10.5	< 40%
CS(=O)(=O)CC(=O)N(CCN1[C@@H]2CC[C@H]1C[C@@H](c1cccc(C(N)=O)c1)C2)Cc1ccc(F)cc1.O=C(O)C(F)(F)F			7 to 10.5	7 to 10.5	< 40%
CS(=O)(=O)CC(=O)N(CCc1ccc(F)cc1)CCN1[C@@H]2CC[C@H]1C[C@@H](c1cccc(C(N)=O)c1)C2.O=C(O)C(F)(F)F			7 to 10.5	7 to 10.5	< 40%
COc1ccc(NC(=O)N(CCN2[C@@H]3CC[C@H]2C[C@@H](c2cccc(O)c2)C3)CC2CCCCC2)cc1OC			7 to 10.5	7 to 10.5	< 40%
